Data published in ChEMBL document CHEMBL1800055, “Orally active MMP-1 sparing α-tetrahydropyranyl and α-piperidinyl sulfone matrix metalloproteinase (MMP) inhibitors with efficacy in cancer, arthritis, and cardiovascular disease” (J Med Chem, 2010).
pIC50: −log10 of the molar value.

Key:
[1] = Oral bioavailability in cynomolgus monkey at 20 mg/kg after 24 hrs; format: ADME, organism-based, Macaca fascicularis; settings: in vivo
[2] = target: T1, Interstitial collagenase (Homo sapiens, UniProt P03956); format: cell-based, HT-1080
T1 sequence (P03956 whole entry): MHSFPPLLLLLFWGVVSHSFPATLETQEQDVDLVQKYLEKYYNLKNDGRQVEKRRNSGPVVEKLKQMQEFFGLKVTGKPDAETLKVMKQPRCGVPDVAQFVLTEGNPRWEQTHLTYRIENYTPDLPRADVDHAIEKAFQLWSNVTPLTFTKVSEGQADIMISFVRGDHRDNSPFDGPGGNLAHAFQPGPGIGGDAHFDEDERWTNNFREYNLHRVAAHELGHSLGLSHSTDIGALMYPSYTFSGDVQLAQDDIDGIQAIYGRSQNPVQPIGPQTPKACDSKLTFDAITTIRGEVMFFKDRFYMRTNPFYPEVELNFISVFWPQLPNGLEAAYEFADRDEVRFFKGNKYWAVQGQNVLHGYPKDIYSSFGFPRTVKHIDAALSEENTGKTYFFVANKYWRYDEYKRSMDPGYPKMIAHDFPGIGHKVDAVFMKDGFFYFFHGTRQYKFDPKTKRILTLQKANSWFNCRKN

[3] = AUC (0 to infinity) in male rat at 20 mg/kg, po after 24 hrs; format: ADME, organism-based; set-up: time infinity, dose 20 mg/kg, route oral; settings: plasma
[4] = Cmax in male dog at 20 mg/kg, po after 24 hrs; format: ADME, organism-based, Canis lupus familiaris; set-up: dose 20 mg/kg, route oral; settings: in vivo
[5] = target: Stromelysin-1 (Homo sapiens, UniProt P08254)
Chain of Stromelysin-1 (P08254 whole entry): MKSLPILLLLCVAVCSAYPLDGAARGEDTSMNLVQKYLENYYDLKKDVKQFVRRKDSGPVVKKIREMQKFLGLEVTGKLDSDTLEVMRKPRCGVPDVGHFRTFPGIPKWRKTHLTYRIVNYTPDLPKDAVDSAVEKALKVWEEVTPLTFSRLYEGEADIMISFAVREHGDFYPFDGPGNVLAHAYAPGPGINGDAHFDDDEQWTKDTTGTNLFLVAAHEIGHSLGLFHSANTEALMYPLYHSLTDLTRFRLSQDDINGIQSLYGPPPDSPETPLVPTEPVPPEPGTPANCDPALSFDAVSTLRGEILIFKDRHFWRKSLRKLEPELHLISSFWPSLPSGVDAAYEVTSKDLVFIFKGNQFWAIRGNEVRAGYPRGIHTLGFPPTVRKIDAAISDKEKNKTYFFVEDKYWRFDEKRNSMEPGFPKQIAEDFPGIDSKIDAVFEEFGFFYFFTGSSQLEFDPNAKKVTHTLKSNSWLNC

[6] = AUC (0 to infinity) in female rat at 20 mg/kg, po after 24 hrs; format: ADME, organism-based; set-up: time infinity, dose 20 mg/kg, route oral; settings: plasma
[7] = Cmax in female dog at 20 mg/kg, po after 24 hrs; format: ADME, organism-based, Canis lupus familiaris; set-up: dose 20 mg/kg, route oral; settings: in vivo
[8] = Tmax in female dog at 20 mg/kg, po after 24 hrs; format: ADME, organism-based, Canis lupus familiaris; set-up: dose 20 mg/kg, route oral; settings: in vivo
[9] = Tmax in cynomolgus monkey at 20 mg/kg, po after 24 hrs; format: ADME, organism-based, Macaca fascicularis; set-up: dose 20 mg/kg, route oral; settings: in vivo
[10] = AUC (0 to infinity) in female dog at 20 mg/kg, po after 24 hrs; format: ADME, organism-based, Canis lupus familiaris; set-up: time infinity, dose 20 mg/kg, route oral; settings: plasma
[11] = AUC (0 to infinity) in male dog at 20 mg/kg, po after 24 hrs; format: ADME, organism-based, Canis lupus familiaris; set-up: time infinity, dose 20 mg/kg, route oral; settings: plasma
[12] = AUC (0 to infinity) in female mouse at 20 mg/kg, po after 24 hrs; format: ADME, organism-based; set-up: time infinity, dose 20 mg/kg, route oral; settings: plasma
[13] = Cmax in rat at 20 mg/kg, po; format: ADME, organism-based; set-up: dose 20 mg/kg, route oral; settings: in vivo
[14] = Tmax in male mouse at 20 mg/kg, po after 24 hrs; format: ADME, organism-based; set-up: dose 20 mg/kg, route oral; settings: in vivo
[15] = AUC (0 to infinity) in cynomolgus monkey at 20 mg/kg, po after 24 hrs; format: ADME, organism-based, Macaca fascicularis; set-up: dose 20 mg/kg, route oral, time infinity; settings: plasma
[16] = Half life in rat at 20 mg/kg, po; format: ADME, organism-based; set-up: dose 20 mg/kg, route oral; settings: in vivo
[17] = Cmax in male mouse at 20 mg/kg, po after 24 hrs; format: ADME, organism-based; set-up: dose 20 mg/kg, route oral; settings: in vivo
[18] = Tmax in male dog at 20 mg/kg, po after 24 hrs; format: ADME, organism-based, Canis lupus familiaris; set-up: dose 20 mg/kg, route oral; settings: in vivo
[19] = Cmax in female rat at 20 mg/kg, po after 24 hrs; format: ADME, organism-based; set-up: dose 20 mg/kg, route oral; settings: in vivo
[20] = tested on: Rattus norvegicus; experiment: Cardioprotective activity in rat myocardial infarction model assessed inhibition of left ventricular dilation at 10 mg/kg, po qd for 4 weeks (reference value: 0.59 +/- 0.02 mL); format: functional, Heart left ventricle
[21] = Cmax in female mouse at 20 mg/kg, po after 24 hrs; format: ADME, organism-based; set-up: dose 20 mg/kg, route oral; settings: in vivo
[22] = target: T2, Matrilysin (Homo sapiens, UniProt P09237)
T2 sequence (P09237 whole entry): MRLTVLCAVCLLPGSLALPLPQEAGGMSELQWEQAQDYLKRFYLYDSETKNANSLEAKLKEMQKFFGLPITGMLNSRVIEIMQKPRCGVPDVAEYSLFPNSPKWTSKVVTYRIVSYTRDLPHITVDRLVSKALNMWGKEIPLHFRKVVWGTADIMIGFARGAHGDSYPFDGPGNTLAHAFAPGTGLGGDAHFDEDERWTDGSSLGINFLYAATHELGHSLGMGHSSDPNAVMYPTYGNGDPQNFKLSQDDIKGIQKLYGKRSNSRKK

[23] = Tmax in female rat at 20 mg/kg, po after 24 hrs; format: ADME, organism-based; set-up: dose 20 mg/kg, route oral; settings: in vivo
[24] = tested on: Mus musculus; experiment: Antiangiogenic activity in cornea of mouse bFGF-induced corneal micropocket model assessed as inhibition of angiogenesis at 5 mg/kg administered as BID; format: functional
[25] = Tmax in male rat at 20 mg/kg, po after 24 hrs; format: ADME, organism-based; set-up: dose 20 mg/kg, route oral; settings: in vivo
[26] = target: 72 kDa type IV collagenase (Homo sapiens, UniProt P08253)
Chain of 72 kDa type IV collagenase (P08253 whole entry): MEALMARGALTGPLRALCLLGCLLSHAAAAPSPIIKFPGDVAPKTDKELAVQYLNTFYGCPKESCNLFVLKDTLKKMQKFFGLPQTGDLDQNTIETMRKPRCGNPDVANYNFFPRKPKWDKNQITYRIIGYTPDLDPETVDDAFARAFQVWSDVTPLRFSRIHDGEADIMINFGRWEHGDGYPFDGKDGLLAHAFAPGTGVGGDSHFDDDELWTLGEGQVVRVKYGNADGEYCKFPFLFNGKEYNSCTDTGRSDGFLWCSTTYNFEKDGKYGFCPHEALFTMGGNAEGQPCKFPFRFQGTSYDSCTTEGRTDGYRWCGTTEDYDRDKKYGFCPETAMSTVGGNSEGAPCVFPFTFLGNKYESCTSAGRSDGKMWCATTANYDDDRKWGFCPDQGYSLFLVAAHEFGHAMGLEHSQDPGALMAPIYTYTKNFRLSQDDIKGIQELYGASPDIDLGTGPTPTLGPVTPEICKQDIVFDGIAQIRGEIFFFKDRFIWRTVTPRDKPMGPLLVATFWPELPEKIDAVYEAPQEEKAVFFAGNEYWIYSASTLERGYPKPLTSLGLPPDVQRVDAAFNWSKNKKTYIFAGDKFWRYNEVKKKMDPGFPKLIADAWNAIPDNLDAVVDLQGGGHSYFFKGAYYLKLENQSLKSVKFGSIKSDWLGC

[27] = Oral bioavailability in female dog at 20 mg/kg after 24 hrs; format: ADME, organism-based, Canis lupus familiaris; settings: in vivo
[28] = target: Neutrophil collagenase (Homo sapiens, UniProt P22894)
Chain of Neutrophil collagenase (P22894 whole entry): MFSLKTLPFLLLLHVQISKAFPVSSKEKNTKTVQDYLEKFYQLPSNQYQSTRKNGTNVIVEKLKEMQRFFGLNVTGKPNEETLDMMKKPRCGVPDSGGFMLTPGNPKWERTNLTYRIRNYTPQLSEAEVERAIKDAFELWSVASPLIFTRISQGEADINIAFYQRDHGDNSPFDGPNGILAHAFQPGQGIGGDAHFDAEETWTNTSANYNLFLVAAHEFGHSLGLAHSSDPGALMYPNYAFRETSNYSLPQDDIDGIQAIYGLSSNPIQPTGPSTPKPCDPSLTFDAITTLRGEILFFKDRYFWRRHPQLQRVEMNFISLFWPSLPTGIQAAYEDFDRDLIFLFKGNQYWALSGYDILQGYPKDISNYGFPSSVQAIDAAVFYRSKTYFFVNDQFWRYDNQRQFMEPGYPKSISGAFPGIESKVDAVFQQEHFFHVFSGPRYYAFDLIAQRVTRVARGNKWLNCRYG

[29] = tested on: Rattus norvegicus; experiment: Plasma concentration in rat at 20 mg/kg, po; format: ADME, organism-based; set-up: dose 20 mg/kg, route oral; settings: in vivo
[30] = target: Collagenase 3 (Homo sapiens, UniProt P45452)
[31] = Cmax in male rat at 20 mg/kg, po after 24 hrs; format: ADME, organism-based; set-up: dose 20 mg/kg, route oral; settings: in vivo
[32] = AUC (0 to infinity) in male mouse at 20 mg/kg, po after 24 hrs; format: ADME, organism-based; set-up: time infinity, dose 20 mg/kg, route oral; settings: plasma
[33] = tested on: PC-3; experiment: Antitumor activity against human PC3 cells xenografted in po dosed BALB/c nu/nu mouse assessed as tumor growth inhibition administered BID measured on 25 to 30 days; format: functional, organism-based
[34] = Tmax in female mouse at 20 mg/kg, po after 24 hrs; format: ADME, organism-based; set-up: dose 20 mg/kg, route oral; settings: in vivo
[35] = Oral bioavailability in male rat at 20 mg/kg after 24 hrs; format: ADME, organism-based; settings: in vivo
[36] = Cmax in cynomolgus monkey at 20 mg/kg, po after 24 hrs; format: ADME, organism-based, Macaca fascicularis; set-up: dose 20 mg/kg, route oral; settings: in vivo
[37] = Oral bioavailability in female rat at 20 mg/kg after 24 hrs; format: ADME, organism-based; settings: in vivo
[38] = Oral bioavailability in male dog at 20 mg/kg after 24 hrs; format: ADME, organism-based, Canis lupus familiaris; settings: in vivo
[39] = Oral bioavailability in female mouse at 20 mg/kg after 24 hrs; format: ADME, organism-based; settings: in vivo
[40] = Oral bioavailability in rat at 20 mg/kg; format: ADME, organism-based; settings: in vivo
[41] = Oral bioavailability in male mouse at 20 mg/kg after 24 hrs; format: ADME, organism-based; settings: in vivo
[42] = tested on: Rattus norvegicus; experiment: Cardioprotective activity in rat myocardial infarction model assessed inhibition of left ventricular dilation at 50 mg/kg, po qd for 4 weeks (reference value: 0.69 +/- 0.02 mL); format: functional, Heart left ventricle
[43] = tested on: Cartilage tissue; experiment: Ex vivo inhibition of IL-1 and oncostatin M-induced bovine nasal cartilage degradation assessed as release of hydroxproline measured up to 16 days by mass spectrometry; format: functional, tissue-based; settings: Bos taurus, 384 h

**Q.** What does the source list for COCCN1CCC(C(=O)NO)(S(=O)(=O)c2ccc(Oc3ccc(OC(F)(F)F)cc3)cc2)CC1?
**A.** bioavailability [1]: 53.8%; pIC50 [2]: < 5.00; AUC(0-inf) [3]: 273 µg·h/mL; Cmax [4]: 60600 ng/mL; pIC50 [5]: 7.54; AUC(0-inf) [6]: 668 µg·h/mL; Cmax [7]: 68900 ng/mL; Tmax [8]: 0.5 h; Tmax [9]: 1.67 h; AUC(0-inf) [10]: 156 µg·h/mL; AUC(0-inf) [11]: 228 µg·h/mL; AUC(0-inf) [12]: 36.1 µg·h/mL; Cmax [13]: 29600 ng/mL; Tmax [14]: 0.167 h; AUC(0-inf) [15]: 191 µg·h/mL; half-life [16]: 2.94 h; Cmax [17]: 26600 ng/mL; Tmax [18]: 0.833 h; Cmax [19]: 69800 ng/mL; Activity [20]: 0.51 mL; Cmax [21]: 41000 ng/mL; pIC50 [22]: 5.15; Tmax [23]: 4 h; inhibition in vivo at 5 mg/kg [24]: 60%; Tmax [25]: 2 h; pIC50 [26]: > 10.00; bioavailability [27]: 69.2%; pIC50 [28]: 8.77; Cp [29]: 20521 ng/mL; pIC50 [30]: > 10.00; Cmax [31]: 42400 ng/mL; AUC(0-inf) [32]: 29.3 µg·h/mL; inhibition [33]: Dose-dependent effect; Tmax [34]: 0.167 h; bioavailability [35]: 66.6%; Cmax [36]: 37100 ng/mL; bioavailability [37]: 82.2%; bioavailability [38]: 64%; bioavailability [39]: 80.8%; bioavailability [40]: 67.9%; bioavailability [41]: 51.7%

**Q.** With C#CCN1CCC(C(=O)NO)(S(=O)(=O)c2ccc(Oc3ccc(S(C)(=O)=O)cc3)cc2)CC1 as the compound, how does the pIC50 [2] read?
**A.** The pIC50 was less than 5.00.

**Q.** What about the Activity [42] of the same compound?
**A.** The Activity was 0.63 mL.

**Q.** And the pIC50 [26]?
**A.** Its pIC50 is 8.48.

**Q.** What about the pIC50 [30] of the same compound?
**A.** Its pIC50 is 8.54.

**Q.** With O=C(NO)C1(CS(=O)(=O)c2ccc(Oc3ccc(Cl)cc3)cc2)CCOCC1 [CTS-1027] as the compound, how does the pIC50 [43] read?
**A.** Its pIC50 is 7.52.

**Q.** With COCCN1CCC(C(=O)NO)(S(=O)(=O)c2ccc(Oc3ccc(SC(F)(F)F)cc3)cc2)CC1 as the compound, how does the pIC50 [2] read?
**A.** Its pIC50 is less than 5.00.

**Q.** What about the pIC50 [5] of the same compound?
**A.** Its pIC50 is 7.62.

**Q.** And the Cmax [13]?
**A.** Its Cmax is 32900 ng/mL.

**Q.** And the half-life [16]?
**A.** Its half-life is 2.99 h.

**Q.** And the pIC50 [22]?
**A.** The pIC50 was 5.05.

**Q.** What about the pIC50 [26] of the same compound?
**A.** Its pIC50 is 9.70.

**Q.** And the pIC50 [28]?
**A.** Its pIC50 is 8.72.

**Q.** And the Cp [29]?
**A.** Its Cp is 14078 ng/mL.

**Q.** What about the pIC50 [30] of the same compound?
**A.** Its pIC50 is 9.70.

**Q.** What about the bioavailability [40] of the same compound?
**A.** Its bioavailability is 34.1%.
